Measured values taken from patent US10004701B2, “Methods and compositions for treating infection” (UNIVERSITY OF ROCHESTER, priority 2012, dated 2018).
Structures can show the parent of a compound that is named as a salt. Where two headings read alike, the source gives them in different places.

Key:
Experiment in all cases: AK assay 384-well format, Prestwick library screening
[1] = system: E. faecium; assay type: cell-based, Enterococcus faecium; conditions: for fold induction at 50 µM: Enterococcus faecium, 3 h
[2] = system: S. aureus strain USA300-0114; assay type: cell-based, Staphylococcus aureus; conditions: for fold induction at 50 µM: Staphylococcus aureus, USA300, 3 h
[3] = system: K. pneumoniae; assay type: cell-based, Klebsiella pneumoniae; conditions: for fold induction at 50 µM: Klebsiella pneumoniae, 3 h
[4] = system: A. baumannii strain 98-37-09; assay type: cell-based, Acinetobacter baumannii; conditions: for fold induction at 50 µM: Acinetobacter baumannii, 983709, 3 h
[5] = system: E. coli; assay type: cell-based, Escherichia coli; conditions: for fold induction at 50 µM: Escherichia coli, 3 h
[6] = system: E. cloacae; assay type: cell-based, Enterobacter cloacae; conditions: for fold induction at 50 µM: Enterobacter cloacae, 3 h
[7] = system: P. aeruginosa; assay type: cell-based, Pseudomonas aeruginosa; conditions: for fold induction at 50 µM: Pseudomonas aeruginosa, 3 h
[8] = 50 μM final drug concentration, cutoff for positive-scoring molecules 3-fold increase
[9] = 50 μM final drug concentration, cutoff for positive-scoring molecules 3-fold increase, read-out: AK-based Prestwick Library Screening Results, E. faecium (fold increase in extracellular AK activity)
[10] = 50 μM final drug concentration, cutoff for positive-scoring molecules 3-fold increase, read-out: AK-based Prestwick Library Screening Results, S. aureus (fold increase in extracellular AK activity)
[11] = 50 μM final drug concentration, cutoff for positive-scoring molecules 3-fold increase, read-out: AK-based Prestwick Library Screening Results, K. pneumoniae (fold increase in extracellular AK activity)
[12] = 50 μM final drug concentration, cutoff for positive-scoring molecules 3-fold increase, read-out: AK-based Prestwick Library Screening Results, A. baumannii (fold increase in extracellular AK activity)
[13] = 50 μM final drug concentration, cutoff for positive-scoring molecules 3-fold increase, read-out: AK-based Prestwick Library Screening Results, E. coli (fold increase in extracellular AK activity)
[14] = 50 μM final drug concentration, cutoff for positive-scoring molecules 3-fold increase, read-out: AK-based Prestwick Library Screening Results, E. cloacae (fold increase in extracellular AK activity)
[15] = 50 μM final drug concentration, cutoff for positive-scoring molecules 3-fold increase, read-out: AK-based Prestwick Library Screening Results, P. aeruginosa (fold increase in extracellular AK activity)
[16] = 50 μM final drug concentration, planktonic, […]
[17] = 50 μM final drug concentration, planktonic, cutoff for positive 3-fold increase

## CC[N+](C)(CC)CCC[n+]1c(-c2ccccc2)c2cc(N)ccc2c2ccc(N)cc21.[I-].[I-] [Propidium iodide]
[1]; [8]
  AK-based Prestwick Library Screening Results, E. faecium (fold increase in extracellular AK activity): 0.8
[2]; [8]
  AK-based Prestwick Library Screening Results, S. aureus (fold increase in extracellular AK activity): 1.4
[3]; [8]
  AK-based Prestwick Library Screening Results, K. pneumoniae (fold increase in extracellular AK activity): 0.8
[4]; [8]
  AK-based Prestwick Library Screening Results, A. baumannii (fold increase in extracellular AK activity): 1.1
[5]; [8]
  AK-based Prestwick Library Screening Results, E. coli (fold increase in extracellular AK activity): 1.3
[6]; [8]
  AK-based Prestwick Library Screening Results, E. cloacae (fold increase in extracellular AK activity): 1.6
[7]; [8]
  AK-based Prestwick Library Screening Results, P. aeruginosa (fold increase in extracellular AK activity): 1.0

## CC(C)c1cccc(C(C)C)c1O [Propofol]
[1]; read-out: AK-based Prestwick Library Screening Results, E. faecium (fold increase in extracellular AK activity)
  fold induction at 50 µM: 1
[2]; read-out: AK-based Prestwick Library Screening Results, S. aureus (fold increase in extracellular AK activity)
  fold induction at 50 µM: 1.2
[3]; read-out: AK-based Prestwick Library Screening Results, K. pneumoniae (fold increase in extracellular AK activity)
  fold induction at 50 µM: 1.1
[4]; read-out: AK-based Prestwick Library Screening Results, A. baumannii (fold increase in extracellular AK activity)
  fold induction at 50 µM: 1
[5]; read-out: AK-based Prestwick Library Screening Results, E. coli (fold increase in extracellular AK activity)
  fold induction at 50 µM: 1.3
[6]; read-out: AK-based Prestwick Library Screening Results, E. cloacae (fold increase in extracellular AK activity)
  fold induction at 50 µM: 1.7
[7]; read-out: AK-based Prestwick Library Screening Results, P. aeruginosa (fold increase in extracellular AK activity)
  fold induction at 50 µM: 1

## CCCOc1cc(N)ccc1C(=O)OCCN(CC)CC [Propoxycaine hydrochloride]
[1]; planktonic E. faecium, 50 μM final drug concentration, positive cutoff 3-fold increase, read-out: AK-based Prestwick library screening result, E. faecium (fold increase in extracellular AK activity)
  fold induction at 50 µM: 1
[2]; planktonic S. aureus, 50 μM final drug concentration, positive cutoff 3-fold increase, read-out: AK-based Prestwick library screening result, S. aureus (fold increase in extracellular AK activity)
  fold induction at 50 µM: 0.7
[3]; planktonic K. pneumoniae, 50 μM final drug concentration, positive cutoff 3-fold increase, read-out: AK-based Prestwick library screening result, K. pneumoniae (fold increase in extracellular AK activity)
  fold induction at 50 µM: 0.6
[4]; planktonic A. baumannii, 50 μM final drug concentration, positive cutoff 3-fold increase, read-out: AK-based Prestwick library screening result, A. baumannii (fold increase in extracellular AK activity)
  fold induction at 50 µM: 0.8
[5]; planktonic E. coli, 50 μM final drug concentration, positive cutoff 3-fold increase, read-out: AK-based Prestwick library screening result, E. coli (fold increase in extracellular AK activity)
  fold induction at 50 µM: 0.6
[6]; planktonic E. cloacae, 50 μM final drug concentration, positive cutoff 3-fold increase, read-out: AK-based Prestwick library screening result, E. cloacae (fold increase in extracellular AK activity)
  fold induction at 50 µM: 0.8
[7]; planktonic P. aeruginosa, 50 μM final drug concentration, positive cutoff 3-fold increase, read-out: AK-based Prestwick library screening result, P. aeruginosa (fold increase in extracellular AK activity)
  fold induction at 50 µM: 0.7

## CC(C)NCC(O)COc1cccc2ccccc12 (stereo not shown) [Propranolol hydrochloride]
[1]; [9]
  fold induction at 50 µM: 1.1
[2]; [10]
  fold induction at 50 µM: 1.4
[3]; [11]
  fold induction at 50 µM: 1.1
[4]; [12]
  fold induction at 50 µM: 1.2
[5]; [13]
  fold induction at 50 µM: 1.2
[6]; [14]
  fold induction at 50 µM: 1.4
[7]; [15]
  fold induction at 50 µM: 1.2

## CCCc1cc(=O)[nH]c(=S)[nH]1 [Propylthiouracil]
[1]; planktonic E. faecium, 50 μM final drug concentration, cutoff for positive-scoring molecules 3-fold increase, read-out: AK-based Prestwick Library Screening Results, E. faecium (increase in extracellular AK activity)
  fold induction at 50 µM: 1
[2]; planktonic S. aureus, 50 μM final drug concentration, cutoff for positive-scoring molecules 3-fold increase, read-out: AK-based Prestwick Library Screening Results, S. aureus (increase in extracellular AK activity)
  fold induction at 50 µM: 0.7
[3]; planktonic K. pneumoniae, 50 μM final drug concentration, cutoff for positive-scoring molecules 3-fold increase, read-out: AK-based Prestwick Library Screening Results, K. pneumoniae (increase in extracellular AK activity)
  fold induction at 50 µM: 0.6
[4]; planktonic A. baumannii, 50 μM final drug concentration, cutoff for positive-scoring molecules 3-fold increase, read-out: AK-based Prestwick Library Screening Results, A. baumannii (increase in extracellular AK activity)
  fold induction at 50 µM: 0.8
[5]; planktonic E. coli, 50 μM final drug concentration, cutoff for positive-scoring molecules 3-fold increase, read-out: AK-based Prestwick Library Screening Results, E. coli (increase in extracellular AK activity)
  fold induction at 50 µM: 0.7
[6]; planktonic E. cloacae, 50 μM final drug concentration, cutoff for positive-scoring molecules 3-fold increase, read-out: AK-based Prestwick Library Screening Results, E. cloacae (increase in extracellular AK activity)
  fold induction at 50 µM: 1.1
[7]; planktonic P. aeruginosa, 50 μM final drug concentration, cutoff for positive-scoring molecules 3-fold increase, read-out: AK-based Prestwick Library Screening Results, P. aeruginosa (increase in extracellular AK activity)
  fold induction at 50 µM: 0.7

## C[C@@H]1O[C@@H](O[C@@H]2C=C3CC[C@@H]4[C@H](CC[C@]5(C)[C@@H](c6ccc(=O)oc6)CC[C@]45O)[C@@]3(C)CC2)[C@H](O)[C@H](O)[C@H]1O [Proscillaridin A]
[1]; planktonic E. faecium, 50 μM final drug concentration, […]
  AK-based Prestwick library screening result, E. faecium (fold increase in extracellular AK activity): 0.8
[2]; planktonic S. aureus, 50 μM final drug concentration, […]
  AK-based Prestwick library screening result, S. aureus (fold increase in extracellular AK activity): 0.6
[3]; planktonic K. pneumoniae, 50 μM final drug concentration, […]
  AK-based Prestwick library screening result, K. pneumoniae (fold increase in extracellular AK activity): 0.7
[4]; planktonic A. baumannii, 50 μM final drug concentration, […]
  AK-based Prestwick library screening result, A. baumannii (fold increase in extracellular AK activity): 0.8
[5]; planktonic E. coli, 50 μM final drug concentration, […]
  AK-based Prestwick library screening result, E. coli (fold increase in extracellular AK activity): 0.9
[6]; planktonic E. cloacae, 50 μM final drug concentration, […]
  AK-based Prestwick library screening result, E. cloacae (fold increase in extracellular AK activity): 0.9
[7]; planktonic P. aeruginosa, 50 μM final drug concentration, […]
  AK-based Prestwick library screening result, P. aeruginosa (fold increase in extracellular AK activity): 0.9

## CC[C@@H](C)C(=O)O[C@H]1[C@H](O)[C@H]2[C@@H](CN3C[C@@H](C)CC[C@H]3[C@@]2(C)O)[C@@H]2C[C@]34O[C@]5(O)[C@@H](OC(=O)[C@@](C)(O)CC)CC[C@@]3(C)[C@@H]5[C@@H](OC(C)=O)[C@@H](OC(C)=O)[C@H]4[C@@]21O [Protoveratrine A]
[1]; [16]
  AK-based Prestwick Library Screening Results, E. faecium (fold increase in extracellular AK activity): 1.0
[2]; [16]
  AK-based Prestwick Library Screening Results, S. aureus (fold increase in extracellular AK activity): 1.2
[3]; [16]
  AK-based Prestwick Library Screening Results, K. pneumoniae (fold increase in extracellular AK activity): 1.2
[4]; [16]
  AK-based Prestwick Library Screening Results, A. baumannii (fold increase in extracellular AK activity): 1.2
[5]; [16]
  AK-based Prestwick Library Screening Results, E. coli (fold increase in extracellular AK activity): 1.1
[6]; [16]
  AK-based Prestwick Library Screening Results, E. cloacae (fold increase in extracellular AK activity): 1.3
[7]; [16]
  AK-based Prestwick Library Screening Results, P. aeruginosa (fold increase in extracellular AK activity): 1.1

## CNCCCC1c2ccccc2C=Cc2ccccc21 [Protriptyline hydrochloride]
[1]; [9]
  fold induction at 50 µM: 1
[2]; [10]
  fold induction at 50 µM: 2.8
[3]; [11]
  fold induction at 50 µM: 1.1
[4]; [12]
  fold induction at 50 µM: 1.1
[5]; [13]
  fold induction at 50 µM: 1.2
[6]; [14]
  fold induction at 50 µM: 1.4
[7]; [15]
  fold induction at 50 µM: 1.2

## CC(O)Cn1cnc2c1c(=O)n(C)c(=O)n2C (stereo not shown) [Proxyphylline]
[1]; 50 μM final drug concentration, planktonic, cutoff for positive-scoring molecules 3-fold increase, read-out: AK-based Prestwick Library Screening Results, E. faecium (fold increase in extracellular AK activity)
  fold induction at 50 µM: 0.9
[2]; 50 μM final drug concentration, planktonic, cutoff for positive-scoring molecules 3-fold increase, read-out: AK-based Prestwick Library Screening Results, S. aureus (fold increase in extracellular AK activity)
  fold induction at 50 µM: 0.5
[3]; 50 μM final drug concentration, planktonic, cutoff for positive-scoring molecules 3-fold increase, read-out: AK-based Prestwick Library Screening Results, K. pneumoniae (fold increase in extracellular AK activity)
  fold induction at 50 µM: 0.5
[4]; 50 μM final drug concentration, planktonic, cutoff for positive-scoring molecules 3-fold increase, read-out: AK-based Prestwick Library Screening Results, A. baumannii (fold increase in extracellular AK activity)
  fold induction at 50 µM: 0.6
[5]; 50 μM final drug concentration, planktonic, cutoff for positive-scoring molecules 3-fold increase, read-out: AK-based Prestwick Library Screening Results, E. coli (fold increase in extracellular AK activity)
  fold induction at 50 µM: 0.5
[6]; 50 μM final drug concentration, planktonic, cutoff for positive-scoring molecules 3-fold increase, read-out: AK-based Prestwick Library Screening Results, E. cloacae (fold increase in extracellular AK activity)
  fold induction at 50 µM: 0.5
[7]; 50 μM final drug concentration, planktonic, cutoff for positive-scoring molecules 3-fold increase, read-out: AK-based Prestwick Library Screening Results, P. aeruginosa (fold increase in extracellular AK activity)
  fold induction at 50 µM: 0.5

## CN1[C@@H]2CCC[C@H]1CC(=O)C2.Cl [Pseudopelletierine hydrochloride]
[1]; [17]
  AK-based Prestwick Library Screening Results, E. faecium (fold increase in extracellular AK activity): 0.9
[2]; [17]
  AK-based Prestwick Library Screening Results, S. aureus (fold increase in extracellular AK activity): 1.0
[3]; [17]
  AK-based Prestwick Library Screening Results, K. pneumoniae (fold increase in extracellular AK activity): 1.2
[4]; [17]
  AK-based Prestwick Library Screening Results, A. baumannii (fold increase in extracellular AK activity): 1.2
[5]; [16]
  AK-based Prestwick Library Screening Results, E. coli (fold increase in extracellular AK activity): 1.4
[6]; [17]
  AK-based Prestwick Library Screening Results, E. cloacae (fold increase in extracellular AK activity): 1.5
[7]; [17]
  AK-based Prestwick Library Screening Results, P. aeruginosa (fold increase in extracellular AK activity): 1.1
